From patent US5444055A, “17-hydroxyiminomethyl-5-β, 14 β-androstane derivatives active on the cardiovascular system, processes for their preparation and pharmaceutical compositions containing same” (Sigma-Tau Industrie Farmaceutiche Riunite S.p.A., priority 1992, dated 1995)

Columns and labels:
Na^+,K^+ -ATPase [1] = target: T1, Na^+,K^+ -ATPase (Homo sapiens, UniProt P05023); experiment: displacement of specific ^3 H-ouabain binding from purified Na^+,K^+ -ATPase receptor
Na^+,K^+ -ATPase [2] = target: T1, Na^+,K^+ -ATPase; experiment: inhibition of the activity of purified Na^+,K^+ -ATPase (hydrolysis of ^32 P-ATP); format: biochemical
[3] = prevention of development of hypertension, 5-week oral treatment, tail cuff SBP and HR; format: in vivo; conditions: 5 week-treatment, 20 mg/Kg/os daily in Methocel 0.5% w/v, 7 rats (MHS); for SBP: controls 173 +/- 4.5; for HR: controls 382 +/- 8.3
Na^+,K^+ -ATPase [4] = conditions: literature report; cited from earlier work
[5] = literature report; cited from earlier work
[6] = read-out: Binding ^3 H-Ouab. Displacement -log IC50 (converted)
[7] = purified Na^+,K^+ -ATPase, ^32 P-ATP hydrolysis, read-out: Inhibitory Activity -log IC50 (converted)

C[C@]12CC[C@H](O)C[C@H]1CC[C@@H]1[C@@H]2CC[C@]2(C)[C@@H](/C=N/OCCN)CC[C@]12O [Comp. I-ab, (E)-17β-(2-Aminoethoxyimino)methyl-5β-androstane-3β-diol]
IC50 (Na^+,K^+ -ATPase [1]; [6]): 79.4 nM
IC50 (Na^+,K^+ -ATPase [2]; [7]): 1580 nM

CO/N=C/[C@H]1CC[C@]2(O)[C@@H]3CC[C@@H]4C[C@@H](OCCN5CCCC5)CC[C@]4(C)[C@H]3CC[C@]12C [Comp. I-ar]
IC50 (Na^+,K^+ -ATPase [1]; [6]): 794 nM
IC50 (Na^+,K^+ -ATPase [2]; [7]): 15800 nM
SBP [3]: 158 +/- 4.0 mm Hg
HR [3]: 385 +/- 6.4 beats/min.

CN(C)CCO/N=C/[C@H]1CC[C@]2(O)[C@@H]3CC[C@@H]4C[C@@H](OCCCN)CC[C@]4(C)[C@H]3CC[C@]12C [Comp. I-as, (E)-3β-(3-Aminopropoxy)-17β-(2-dimethylaminoethoxyimino)methyl-5β-androstane-14β-ol]
IC50 (Na^+,K^+ -ATPase [1]; [6]): 39.8 nM
IC50 (Na^+,K^+ -ATPase [2]; [7]): 316 nM
SBP [3]: 149 +/- 7.9 mm Hg
HR [3]: 377 +/- 9.5 beats/min.

C[C@]12CC[C@H](O)C[C@H]1CC[C@@H]1[C@@H]2CC[C@]2(C)C(=NNC(=N)N)CC[C@]12O [17-guanidinoimino-5β-androstane-3β,14β-diol]
inhibition of Na^+,K^+-ATPase (Na^+,K^+ -ATPase [4]): weak inhibitors of Na^+,K^+ -ATPase
positive inotropic activity [5]: weak positive inotropic agents

CN(C)CCO/N=C/[C@H]1CC[C@]2(O)[C@@H]3CC[C@@H]4C[C@@H](O)CC[C@]4(C)[C@H]3CC[C@]12C [Comp. I-ad, (E)-17β-(2-Dimethylaminoethoxyimino)methyl-5β-androstane-3β,14 β-diol]
IC50 (Na^+,K^+ -ATPase [1]; [6]): 39.8 nM
IC50 (Na^+,K^+ -ATPase [2]): 1260 nM
SBP [3]: 148 +/- 4.0 mm Hg
HR [3]: 375 +/- 10.5 beats/min.

CN(C)CCO/N=C/[C@H]1CC[C@]2(O)[C@@H]3CC[C@@H]4C[C@@H](OCCN5CCCC5)CC[C@]4(C)[C@H]3CC[C@]12C [Comp. I-au, (E)-3β-(2-(1-Pyrrolidinyl)ethoxy)-17β-(2-dimethylaminoethoxyimino)methyl-5β-androstane-3β,14β-diol]
IC50 (Na^+,K^+ -ATPase [1]): 50.1 nM
IC50 (Na^+,K^+ -ATPase [2]; [7]): 398 nM

CN(C)CCO/N=C/[C@H]1CC[C@]2(O)[C@@H]3CC[C@@H]4CC(=NNC(=N)N)CC[C@]4(C)[C@H]3CC[C@]12C (mixture of isomers) [Comp. I-aw, 3-((EZ)-Guanidinoimino)-17β-((E)-2-dimethylaminoethoxyiminomethyl)-5β-androstane-14β-ol]
IC50 (Na^+,K^+ -ATPase [1]; [6]): 79.4 nM
IC50 (Na^+,K^+ -ATPase [2]; [7]): 1260 nM

CN(C)CCON=C1CC[C@@]2(C)[C@H](CC[C@@H]3[C@@H]2CC[C@]2(C)[C@@H](/C=N/OCCN(C)C)CC[C@]32O)C1 (mixture of isomers) [Comp. I-az]
IC50 (Na^+,K^+ -ATPase [1]; [6]): 126 nM
IC50 (Na^+,K^+ -ATPase [2]; [7]): 2000 nM

C[C@]12CC[C@H](O)C[C@H]1CC[C@@H]1[C@@H]2CC[C@]2(C)[C@@H](C=NNC(=N)N)CC[C@]12O [17β-guanidinoiminomethyl-5β-androstane-3β,14β-diol]
inhibition of Na^+,K^+-ATPase (Na^+,K^+ -ATPase [4]): weak inhibitors of Na^+,K^+ -ATPase
positive inotropic activity [5]: weak positive inotropic agents

C[C@]12CC[C@H](O)C[C@H]1CC[C@@H]1[C@@H]2CC[C@]2(C)[C@@H](C=NO)CC[C@]12O [17β-hydroxyiminomethyl-5β-androstane-3b,14b-diol]
inhibition of Na^+,K^+-ATPase (Na^+,K^+ -ATPase [4]): not to inhibit Na^+,K^+ -ATPase

CN(C)CCO/N=C/[C@@]1(O)CC[C@]2(O)[C@@H]3CC[C@@H]4C[C@@H](O)CC[C@]4(C)[C@H]3CC[C@]12C [Comp. I-ak, (E)-17β-(2-Dimethylaminoethoxyimino)methyl-5β-androstane-3β,14β,17α-triol]
IC50 (Na^+,K^+ -ATPase [1]; [6]): 1000 nM
IC50 (Na^+,K^+ -ATPase [2]; [7]): 39800 nM

CO/N=C/[C@H]1CC[C@]2(O)[C@@H]3CC[C@@H]4C[C@@H](O)CC[C@]4(C)[C@H]3CC[C@]12C [Comp. I-aa, (E)-17β-Methoxyiminomethyl-5β-androstane-3β,14β-diol]
IC50 (Na^+,K^+ -ATPase [1]; [6]): 3980 nM
IC50 (Na^+,K^+ -ATPase [2]): 31600 nM

CO/N=C/[C@H]1CC[C@]2(O)[C@@H]3CC[C@@H]4C[C@@H](OCCCN)CC[C@]4(C)[C@H]3CC[C@]12C [Comp. I-aq, (E)-3β-(3-Aminopropoxy)-17β-methoxyiminomethyl-5β-androstane-14β-ol]
IC50 (Na^+,K^+ -ATPase [1]; [6]): 631 nM
IC50 (Na^+,K^+ -ATPase [2]): 15800 nM

CN(C)CCCO/N=C/[C@H]1CC[C@]2(O)[C@@H]3CC[C@@H]4C[C@@H](O)CC[C@]4(C)[C@H]3CC[C@]12C [Comp. I-af, (E)-17β-(3-Dimethylaminopropoxyimino)methyl-5.β-androstane-3β,14β-diol]
IC50 (Na^+,K^+ -ATPase [1]; [6]): 158 nM
IC50 (Na^+,K^+ -ATPase [2]): 2510 nM

C[C@]12CC[C@H](O)C[C@H]1CC[C@@H]1[C@@H]2CC[C@]2(C)[C@@H](/C=N/OCCNC(=N)N)CC[C@]12O [Comp. I-ag, (E)-17β-(2-Guanidinoethoxyimino)methyl-5β-androstane-3β,14β-diol]
IC50 (Na^+,K^+ -ATPase [1]; [6]): 158 nM
IC50 (Na^+,K^+ -ATPase [2]): 3160 nM

C/C(=N\OCCN(C)C)[C@H]1CC[C@]2(O)[C@@H]3CC[C@@H]4C[C@@H](O)CC[C@]4(C)[C@H]3CC[C@]12C [Comp. I-ai, (E)-20-(2-Dimethylaminoethoxyimino)-5β-pregnane-3β,14β-diol]
IC50 (Na^+,K^+ -ATPase [1]; [6]): 79.4 nM
IC50 (Na^+,K^+ -ATPase [2]; [7]): 2000 nM
